# From patent publication US20250122193A1, “NOVEL PYRIDOCARBAZOLIUM COMPOUNDS AND MEDICAL USES THEREOF” (MyCural Therapeutics, priority 2021, published 2025)
# Assay: oxidative metabolism in human liver microsomes
# Source text: First, we performed a pharmacokinetic study of the behavior of the molecule in mice.
compound,measurement,value
"CCN(CC)CC[n+]1ccc2c(C)c3[nH]c4ccccc4c3c(C)c2c1 [MYCMI-7, 2-(5,11-Dimethyl-6H-25-pyrido[4,3-b]carbazol-2-yl)-N,N-diethylethanamine bromide]",stability against oxidative metabolism,stable
